Data on 10 compounds can be found in US20230374035A1, “RAS INHIBITORS” (Revolution Medicines, Inc., priority 2019, published 2023).

Read-outs that look alike come from different tables or passages of the source.

One data set has as its target KRAS G12C (Homo sapiens, UniProt P01116+P62937, G12C). The experiment in a line: Disruption of BRAF RBD interaction with K-Ras (FRET / MOA assay). It counts as biochemical. The method, then: (§1) Compound is present in plate wells as a 10-point 3-fold dilution series starting at a final concentration of 30 μM. […] Compounds that facilitate disruption of a Ras:RAF complex are identified as those eliciting a decrease in the TR-FRET ratio relative to DMSO control wells.
(§2) Note—The following protocol describes a procedure for monitoring disruption of K-Ras G12C (GMP-PNP) binding to BRAF^RBD by a compound of the invention. This protocol may also be executed substituting other Ras proteins or nucleotides.
(§3) The purpose of this biochemical assay was to measure the ability of test compounds to facilitate ternary complex formation between a nucleotide-loaded K-Ras isoform and Cyclophilin A; the resulting ternary complex disrupts binding to a BRAF^RBD construct, inhibiting K-Ras signaling through a RAF effector. Data is reported as IC50 values.
(§4) Compound was present in plate wells as a 10-point 3-fold dilution series starting at a final concentration of 30 μM. […] Compounds that facilitate disruption of a K-Ras:RAF complex were identified as those eliciting a decrease in the TR-FRET ratio relative to DMSO control wells.

A further data set addresses KRAS G12D (Homo sapiens, UniProt P01116+P62937, G12D). The data set is described as above. It counts as biochemical. The method, then: as §1, §2, §3, §4
For the next data set, the target named is KRAS G12V (Homo sapiens, UniProt P01116+P62937, G12V). The data set is described as above. It counts as biochemical. On the procedure: as §1, §2, §3, §4
A further data set addresses KRAS G13C (Homo sapiens, UniProt P01116+P62937, G13C). The data set is described as above. The class given is biochemical. The method, then:
as §1, §2, §3, §4

In the next data set the target is KRAS G13D (Homo sapiens, UniProt P01116+P62937, G13D). The data set is described as above. The class given is biochemical. On the procedure: as §1, §2, §3, §4
In data set [1] the test system is NCI-H358 cells (K-Ras G12C). The experiment in a line: Potency assay: pERK. It counts as cell-based. The note with it: Homo sapiens. The method, then:
The purpose of this assay is to measure the ability of test compounds to inhibit K-Ras in cells. […] This procedure measures a decrease in cellular pERK in response to test compounds. The procedure described below in NCI-H358 cells is applicable to K-Ras G12C.
NCI-H358 cells were grown and maintained using media and procedures recommended by the ATCC. On the day prior to compound addition, cells were plated in 384-well cell culture plates (40 μl/well) and grown overnight in a 37° C., 5% CO2 incubator. Test compounds were prepared in 10, 3-fold dilutions in DMSO, with a high concentration of 10 mM. On day of assay, 40 nl of test compound was added to each well of cell culture plate using an Echo550 liquid handler (LabCyte®). Concentrations of test compound were tested in duplicate. […]
In some experiments, cellular pERK level was determined using the AlphaLISA SureFire Ultra p-ERK1/2 Assay Kit (PerkinElmer). […] Signal was read on an Envision plate reader (PerkinElmer) using standard AlphaLISA settings. […] Signal was plotted vs. the decadal logarithm of compound concentration, and IC50 was determined by fitting a 4-parameter sigmoidal concentration response model.
In other experiments, cellular pERK was determined by In-Cell Western. […] Signal was plotted vs. the decadal logarithm of compound concentration, and IC50 was determined by fitting a 4-parameter sigmoidal concentration response model.

In data set [2] the test system is Capan-1 (K-Ras G12V). The experiment in a line: Potency assay: pERK. It counts as cell-based. Particulars: Homo sapiens.
A further data set relates to AsPC-1 (K-Ras G12D). The experiment in a line: Potency assay: pERK. It counts as cell-based. The note with it: Homo sapiens, ASPC1.
The test system of another data set is SWi573. Particulars: cited from earlier work.
In another data set the target is NRAS Q61R (Homo sapiens, UniProt P01111+P62937, Q61R). In words: Disruption of BRAF RBD interaction with Ras (FRET / MOA assay). The class given is biochemical. Particulars: read-out: NRAS Q61R FRET data IC50. The gist of the method: (§5)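 Test compounds drive ternary complex formation between nucleotide-loaded Ras and Cyclophilin A, which disrupts Ras binding to a BRAF^RBD construct. Compound was tested as a 10-point 3-fold dilution series from 30 μM final. IC50 was derived from the decrease in TR-FRET ratio relative to DMSO control wells.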

The test system of data set [3] is Capan-1 (K-Ras G12V). In words: CellTiter-Glo Cell Viability Assay. The class given is cell-based. Particulars: Homo sapiens, 120 h; Capan-1, 5-day treatment. On the procedure:
(§6) Determination of Cell Viability in RAS Mutant Cancer Cell Lines
(§7) Protocol: CellTiter-Glo® Cell Viability Assay
(§8) Note—The following protocol describes a procedure for monitoring cell viability of K-Ras mutant cancer cell lines in response to a compound of the invention. Other RAS isoforms may be employed, though the number of cells to be seeded will vary based on cell line used.
(§9) Test compounds (132.5 nl) were directly dispensed into the assay plates containing cells. […] On day 5, assay plates and their contents were equilibrated to room temperature for approximately 30 minutes. […] Luminescence was measured using the PerkinElmer Enspire. Data were normalized by the following: (Sample signal/Avg. DMSO)*100. The data were fit using a four-parameter logistic fit.

In another data set the test system is NCI-H358 (K-Ras G12C). The experiment in a line: CellTiter-Glo Cell Viability Assay. Particulars: Homo sapiens, NCI-H358, 120 h; H358, 5-day treatment. It counts as cell-based. The method, then:
as §6, §7, §8, §9
(In general: In ATP-based viability assays light output follows the ATP content of the culture.)

Another data set deals with NRAS G12C (Homo sapiens, UniProt P01111+P62937, G12C). In words: Disruption of BRAF RBD interaction with Ras (FRET / MOA assay). The class given is biochemical. In a few lines:
as §5

Data set [4] has as its system Capan-2 KRASG12V/wt xenograft model. The experiment in a line: Tumor growth in Capan-2 CDX model. It counts as in vivo, BALB/c nude mice. Particulars: Compound A 100 mg/kg po bid daily, RMC-4550 20 mg/kg po every other day. The method, then: Capan-2 cells were implanted in 50% Matrigel. Animals were randomized and treatment was initiated at average tumor volume of ˜180 mm3. […] Ns=no significance; ***p<0.001 by one-way ANOVA.
Once tumors reached an average size of ˜180 mm3, mice were randomized to treatment groups to start the administration of test articles or vehicle. […] Body weight and tumor volume (using calipers) was measured twice weekly until study endpoints.

A further data set addresses NRAS Q61K (Homo sapiens, UniProt P01111+P62937, Q61K). The experiment in a line: Disruption of BRAF RBD interaction with Ras (FRET / MOA assay). The class given is biochemical. Particulars: read-out: NRAS Q61K FRET data IC50. The gist of the method:
as §5

For data set [5] the following is noted: from CC(C)[Si](Oc1cc(C[C@H](NC(=O)OC(C)(C)C)C(=O)N2CCC[C@@H](C(=O)O)N2)cc(-c2ccc3[nH]c(I)c(CC(C)(C)CO)c3c2)c1)(C(C)C)C(C)C; ester bond; EDCl/HOBt/DIPEA; DCM; 22.8 mM; 25.0 °C; 16.0 h.
[6] abbreviates: read-out: KRAS G12C FRET data IC50.
The mark [7] stands for this setting: read-out: KRAS G13C FRET data IC50.

NRAS Q61R, sequence (P01111 whole entry Q61R): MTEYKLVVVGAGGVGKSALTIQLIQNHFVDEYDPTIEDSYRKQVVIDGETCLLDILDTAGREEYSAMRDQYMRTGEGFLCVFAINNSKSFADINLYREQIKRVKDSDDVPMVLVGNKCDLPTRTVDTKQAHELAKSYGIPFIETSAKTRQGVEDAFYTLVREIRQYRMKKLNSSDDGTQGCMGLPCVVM
NRAS Q61R, sequence (P62937 whole entry): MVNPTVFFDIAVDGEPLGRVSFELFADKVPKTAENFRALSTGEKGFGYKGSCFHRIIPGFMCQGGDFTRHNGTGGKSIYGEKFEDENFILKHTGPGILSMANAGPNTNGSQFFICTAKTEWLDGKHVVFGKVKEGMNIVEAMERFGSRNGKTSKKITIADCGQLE
KRAS G12C, sequence (P01116 1-188 isoform P01116-2 G12C): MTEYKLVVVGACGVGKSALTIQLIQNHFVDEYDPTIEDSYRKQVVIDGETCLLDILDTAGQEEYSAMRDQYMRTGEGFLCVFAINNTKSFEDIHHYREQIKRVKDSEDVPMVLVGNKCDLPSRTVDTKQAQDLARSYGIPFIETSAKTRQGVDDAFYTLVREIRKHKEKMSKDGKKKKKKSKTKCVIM
KRAS G12C, sequence (P62937 whole entry): as the sequence (P62937 whole entry) above
KRAS G13C, sequence (P01116 1-188 isoform P01116-2 G13C): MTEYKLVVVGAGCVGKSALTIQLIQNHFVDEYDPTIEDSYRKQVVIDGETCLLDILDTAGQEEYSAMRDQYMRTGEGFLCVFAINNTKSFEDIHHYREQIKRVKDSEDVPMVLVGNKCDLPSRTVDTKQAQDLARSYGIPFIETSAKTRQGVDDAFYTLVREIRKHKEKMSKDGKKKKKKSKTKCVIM
KRAS G13C, sequence (P62937 whole entry): as the sequence (P62937 whole entry) above
NRAS Q61K, sequence (P01111 whole entry Q61K): as the sequence (P01111 whole entry Q61R) above, with R61K counted along it
NRAS Q61K, sequence (P62937 whole entry): as the sequence (P62937 whole entry) above
KRAS G12V, sequence (P01116 1-188 isoform P01116-2 G12V): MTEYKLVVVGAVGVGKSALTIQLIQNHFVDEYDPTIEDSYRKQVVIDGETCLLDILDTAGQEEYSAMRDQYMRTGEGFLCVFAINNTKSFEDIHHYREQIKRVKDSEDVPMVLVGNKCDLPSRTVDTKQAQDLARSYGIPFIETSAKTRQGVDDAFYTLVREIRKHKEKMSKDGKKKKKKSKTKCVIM
KRAS G12V, sequence (P62937 whole entry): as the sequence (P62937 whole entry) above
NRAS G12C, sequence (P01111 whole entry G12C): as the sequence (P01111 whole entry Q61R) above, with G12C, R61Q counted along it
NRAS G12C, sequence (P62937 whole entry): as the sequence (P62937 whole entry) above
KRAS G13D, sequence (P01116 1-188 isoform P01116-2 G13D): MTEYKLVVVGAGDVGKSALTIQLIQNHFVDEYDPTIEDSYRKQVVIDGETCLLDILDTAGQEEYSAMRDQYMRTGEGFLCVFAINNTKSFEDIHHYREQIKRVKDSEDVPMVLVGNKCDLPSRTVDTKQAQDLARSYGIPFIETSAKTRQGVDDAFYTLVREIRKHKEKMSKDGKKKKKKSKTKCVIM
KRAS G13D, sequence (P62937 whole entry): as the sequence (P62937 whole entry) above
KRAS G12D, sequence (P01116 1-188 isoform P01116-2 G12D): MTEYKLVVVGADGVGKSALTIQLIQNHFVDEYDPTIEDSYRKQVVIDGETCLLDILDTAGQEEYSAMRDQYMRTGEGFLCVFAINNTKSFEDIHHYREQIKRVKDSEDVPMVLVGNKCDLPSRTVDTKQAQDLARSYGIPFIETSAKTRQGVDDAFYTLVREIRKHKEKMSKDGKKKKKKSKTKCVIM
KRAS G12D, sequence (P62937 whole entry): as the sequence (P62937 whole entry) above

What is called IC50 is the concentration that inhibits the measured activity by half. As a reminder, the EC50 is the concentration giving half of the maximal effect. A high value points to a need for much substance. `CCn1c(-c2cnccc2COC)c2c3cc(ccc31)-c1cc(O)cc(c1)C[C@H](NC(=O)[C@H](C(C)C)N(C)C(=O)OC1CN(C)C1)C(=O)N1CCC[C@H](N1)C(=O)OCC(C)(C)C2` [Compound A74]: the IC50 on KRAS G12C (read-out: FRET G12C IC50) came to 450 nM; against KRAS G12D, 228 nM; on KRAS G12V (read-out: FRET G12V IC50), 3670 nM; on KRAS G13C (read-out: FRET G13C IC50) it was 91 nM; against KRAS G13D, 212 nM. The results for the EC50 (in data set [1]; in the data set on Capan-1 (K-Ras G12V) [2]; with AsPC-1 (K-Ras G12D)) were 334 nM, 413 nM and 468 nM, respectively.

Consider `C=CC(=O)N1CCN(c2nc(=O)n(-c3c(C)ccnc3C(C)C)c3nc(-c4c(O)cccc4F)c(F)cc23)[C@@H](C)C1` [AMG510], for which the “sensitivity of SWi573 to inhibitor” value in the data set on SWi573 is given as “insensitive”.

As for `CCn1c(-c2cc(N3CCN(C)CC3)cnc2[C@H](C)OC)c2c3cc(ccc31)-c1csc(n1)C[C@H](NC(=O)[C@H](C1CCCC1)N(C)C(=O)[C@@H]1OCC[C@@H]1c1ccccc1)C(=O)N1CCC[C@H](N1)C(=O)OCC(C)(C)C2` (atropisomer, axis not shown) [Compound A593], the IC50 at NRAS Q61R was 10 to 100 nM; in the data set with Capan-1 (K-Ras G12V) [3], under 10 nM; with NCI-H358 (K-Ras G12C), under 10 nM.

Turning to `CCn1c(-c2cccnc2[C@H](C)OC)c2c3cc(ccc31)-c1cc(O)cc(c1)C[C@H](NC(=O)[C@H](C(C)C)N(C)C(=O)[C@@H]1CN(C(=O)OC)C[C@@H]1C)C(=O)N1CCC[C@H](N1)C(=O)OCC(C)(C)C2` (atropisomer, axis not shown) [Compound A325], the IC50 on KRAS G12C (setting [6]), on KRAS G12V (read-out: KRAS G12V FRET data IC50), at KRAS G13C (setting [7]), against NRAS G12C and in the data set with NCI-H358 (K-Ras G12C) was under 10 nM throughout.

With `CCn1c(-c2cccnc2[C@H](C)OC)c2c3cc(ccc31)-c1cc(O)cc(c1)C[C@H](NC(=O)[C@H](C(C)C)N(C)C(=O)[C@H]1CCN(C(=O)C(C)(C)NC)C1)C(=O)N1CCC[C@H](N1)C(=O)OCC(C)(C)C2` (atropisomer, axis not shown) [Compound A381], the 50% inhibitory concentration (IC50) at KRAS G13C (setting [7]) is under 10 nM.

The TGI is the reduction of tumour growth relative to the control group. In turn, `Cc1nc(N2CCC3(CC2)CO[C@@H](C)[C@H]3N)c(CO)nc1-c1cccc(Cl)c1Cl` [RMC-4550] yielded a TGI in data set [4] of 39%.

With `CCn1c(-c2cc(N3CCN(C)CC3)cnc2[C@H](C)OC)c2c3cc(ccc31)-c1csc(n1)C[C@H](NC(=O)[C@H](C(C)C)N(C)C(=O)N1CC(C3COC3)C1)C(=O)N1CCC[C@H](N1)C(=O)OCC(C)(C)C2` (atropisomer, axis not shown) [Compound A465], the IC50 on NRAS Q61K was 10 to 100 nM; on NRAS Q61R it was 10 to 100 nM; in the data set on Capan-1 (K-Ras G12V) [3] it was under 10 nM; in the data set on NCI-H358 (K-Ras G12C) it was under 10 nM.

On to `CC(C)[Si](Oc1cc2cc(c1)-c1ccc3[nH]c(I)c(c3c1)CC(C)(C)COC(=O)[C@@H]1CCCN(N1)C(=O)[C@@H](NC(=O)OC(C)(C)C)C2)(C(C)C)C(C)C`, for which the ring closure, yield of all isomers in data set [5] amounted to 50%.

Regarding `CCn1c(-c2cccnc2[C@H](C)OC)c2c3cc(ccc31)-c1cc(O)cc(c1)C[C@H](NC(=O)[C@H](C(C)C)N(C)C(=O)[C@@H]1C[C@@H]1O)C(=O)N1CCC[C@H](N1)C(=O)OCC(C)(C)C2` (atropisomer, axis not shown) [Compound A323], the IC50 on KRAS G12C (setting [6]) and at NRAS G12C was under 10 nM throughout.

As for `CCn1c(-c2cc(N3CCN(C)CC3)cnc2[C@H](C)OC)c2c3cc(ccc31)-c1csc(n1)C[C@H](NC(=O)[C@H](C(C)C)N(C)C(=O)[C@@H]1OCC[C@@H]1c1ccncc1)C(=O)N1CCC[C@H](N1)C(=O)OCC(C)(C)C2` (atropisomer, axis not shown) [Compound A450], the IC50 is 10 to 100 nM at NRAS Q61K, 10 to 100 nM at NRAS Q61R, under 10 nM in the data set on Capan-1 (K-Ras G12V) [3] and under 10 nM with NCI-H358 (K-Ras G12C).
